Measurements: PubChem BioAssay (NCI)
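Five compound concentrations were applied to cells in 96-well plates for 48 hours; endpoints were derived by simple linear interpolation of the resulting dose-response curve. At the GI50, growth is halved. TGI denotes the concentration required for complete inhibition of growth.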

Key:
Assay in all cases: NCI tumour cell line growth inhibition, 48 h
[1] = system: 786-0 renal
[2] = system: A498 renal
[3] = system: A549 NSCLC
[4] = system: ACHN renal
[5] = system: BT-549 breast
[6] = system: CAKI-1 renal
[7] = system: CCRF-CEM leukemia
[8] = system: COLO 205 colon
[9] = system: DU-145 prostate
[10] = system: EKVX NSCLC
[11] = system: HCC-2998 colon
[12] = system: HCT-116 colon
[13] = system: HCT-15 colon
[14] = system: HL-60(TB) leukemia
[15] = system: HOP-62 NSCLC
[16] = system: HS 578T breast
[17] = system: HT29 colon
[18] = system: IGROV1 ovarian
[19] = system: K-562 leukemia
[20] = system: KM12 colon
[21] = system: LOX IMVI melanoma
[22] = system: M14 melanoma
[23] = system: MALME-3M melanoma
[24] = system: MCF7 breast
[25] = system: MDA-MB-231 breast
[26] = system: MDA-MB-435
[27] = system: MOLT-4 leukemia
[28] = system: NCI-H226 lung
[29] = system: NCI-H23 lung
[30] = system: NCI-H460 lung
[31] = system: NCI-H522 lung
[32] = system: NCI/ADR-RES ovarian
[33] = system: OVCAR-3 ovarian
[34] = system: OVCAR-4 ovarian
[35] = system: OVCAR-5 ovarian
[36] = system: OVCAR-8 ovarian
[37] = system: PC-3 prostate
[38] = system: RPMI-8226 leukemia
[39] = system: RXF 393 renal
[40] = system: SF-268 CNS
[41] = system: SF-295 CNS
[42] = system: SF-539 CNS
[43] = system: SK-MEL-2 melanoma
[44] = system: SK-MEL-28 melanoma
[45] = system: SK-MEL-5 melanoma
[46] = system: SK-OV-3 ovarian
[47] = system: SN12C renal
[48] = system: SNB-19 CNS
[49] = system: SNB-75 CNS
[50] = system: SR leukemia
[51] = system: SW-620 colon
[52] = system: T-47D breast
[53] = system: TK-10 renal
[54] = system: U251 CNS
[55] = system: UACC-257 melanoma
[56] = system: UACC-62 melanoma
[57] = system: UO-31 renal

For `COc1ccc(CN2CCc3c(Sc4ccccc4)nc(N)nc3C2=O)c(OC)c1`, the GI50 [1] was 7.62 µM, the TGI [1] was greater than 100 µM and the GI50 [2] was 7.22 µM. For the same compound, the TGI [2] was 57.7 µM, the GI50 [3] was 9.49 µM and the TGI [3] was 45.8 µM. For the same compound, the GI50 [4] was 7.25 µM, the TGI [4] was 52 µM and the GI50 [5] was 2300 nM. The TGI [5] was 10.1 µM, the GI50 [6] was 3.4 µM and the TGI [6] was 18.3 µM. The GI50 [7] was 4530 nM, the TGI [7] was 52.9 µM and the GI50 [8] was 14.8 µM. It also gave a TGI [8] of 47.9 µM, a GI50 [9] of 8.57 µM and a TGI [9] of 32.4 µM. The GI50 [10] was 4.32 µM, the TGI [10] was 19.9 µM and the GI50 [11] was 14.1 µM. It also gave a TGI [11] of 30.4 µM, a GI50 [12] of 3.9 µM and a TGI [12] of 36.6 µM. For the same compound, the GI50 [13] was 8.32 µM, the TGI [13] was 39.2 µM and the GI50 [14] was 1560 nM. It also gave a TGI [14] of 5.32 µM, a GI50 [15] of 18 µM and a TGI [15] of 73.4 µM. For the same compound, the GI50 [16] was 16.3 µM, the TGI [16] was greater than 100 µM and the GI50 [17] was 7.61 µM. It also gave a TGI [17] of 23.6 µM, a GI50 [18] of 11 µM and a TGI [18] of 28.9 µM. It also gave a GI50 [19] of 4.3 µM, a TGI [19] greater than 100 µM and a GI50 [20] of 8.67 µM. For the same compound, the TGI [20] was 32.7 µM, the GI50 [21] was 7.92 µM and the TGI [21] was 24.5 µM. For the same compound, the GI50 [22] was 9.61 µM, the TGI [22] was 28.1 µM and the GI50 [23] was 1.58 µM. The TGI [23] was 8.87 µM, the GI50 [24] was 5.65 µM and the TGI [24] was 75.9 µM. For the same compound, the GI50 [25] was 11 µM, the TGI [25] was 76.9 µM and the GI50 [26] was 3.57 µM. The TGI [26] was 16.3 µM, the GI50 [27] was 3000 nM and the TGI [27] was 16.1 µM. For the same compound, the GI50 [28] was 8.55 µM, the TGI [28] was 27.1 µM and the GI50 [29] was 4.06 µM. It also gave a TGI [29] of 38.4 µM, a GI50 [30] of 9.06 µM and a TGI [30] greater than 100 µM. It also gave a GI50 [31] of 3050 nM, a TGI [31] of 17.7 µM and a GI50 [32] of 4.13 µM. It also gave a TGI [32] of 29.9 µM, a GI50 [33] of 4250 nM and a TGI [33] of 25.7 µM. For the same compound, the GI50 [34] was 4.57 µM, the TGI [34] was 18.3 µM and the GI50 [35] was 39 µM. The TGI [35] was greater than 100 µM, the GI50 [36] was 6.23 µM and the TGI [36] was 30.5 µM. For the same compound, the GI50 [37] was 4.41 µM, the TGI [37] was 29.1 µM and the GI50 [38] was 1890 nM. It also gave a TGI [38] of 7.26 µM, a GI50 [39] of 2650 nM and a TGI [39] of 9.74 µM. The GI50 [40] was 6.21 µM, the TGI [40] was 26 µM and the GI50 [41] was 8.35 µM. The TGI [41] was 22.7 µM, the GI50 [42] was 14.4 µM and the TGI [42] was 36.8 µM. It also gave a GI50 [43] of 10.1 µM, a TGI [43] of 32.6 µM and a GI50 [44] of 8.91 µM. The TGI [44] was 26.8 µM, the GI50 [45] was 7.35 µM and the TGI [45] was 22.5 µM. The GI50 [46] was 21.4 µM, the TGI [46] was 84.6 µM and the GI50 [47] was 8.82 µM. It also gave a TGI [47] greater than 100 µM, a GI50 [48] of 15.4 µM and a TGI [48] of 55.3 µM. The GI50 [49] was 5.58 µM, the TGI [49] was 19.7 µM and the GI50 [50] was 2950 nM. For the same compound, the TGI [50] was 22.6 µM, the GI50 [51] was 6.15 µM and the TGI [51] was 41.2 µM. For the same compound, the GI50 [52] was 3.99 µM, the TGI [52] was 34.5 µM and the GI50 [53] was 5 µM. The TGI [53] was 19.2 µM, the GI50 [54] was 8.01 µM and the TGI [54] was 27.4 µM. The GI50 [55] was 5.99 µM, the TGI [55] was 22.2 µM and the GI50 [56] was 6.78 µM. The TGI [56] was 21.4 µM, the GI50 [57] was 1450 nM and the TGI [57] was 12.8 µM.

`Oc1ccc(/C=C/c2ccc(O)cc2)cc1` gave a GI50 [1] of 2.17 µM, a TGI [1] of 7.93 µM and a GI50 [2] of 10.3 µM. The TGI [2] was 99.6 µM, the GI50 [3] was 2.69 µM and the TGI [3] was greater than 38.5 µM. The GI50 [4] was 1.25 µM, the TGI [4] was greater than 61.7 µM and the GI50 [5] was 1260 nM. It also gave a TGI [5] greater than 90 µM, a GI50 [6] of 3.5 µM and a TGI [6] greater than 24.1 µM. The GI50 [7] was 219 nM, the TGI [7] was 0.761 µM and the GI50 [8] was greater than 55.1 µM. For the same compound, the TGI [8] was greater than 100 µM, the GI50 [9] was 3.84 µM and the TGI [9] was 44 µM. It also gave a GI50 [10] of 9.15 µM, a TGI [10] greater than 100 µM and a GI50 [11] of 3.59 µM. For the same compound, the TGI [11] was 18 µM, the GI50 [12] was 4.28 µM and the TGI [12] was greater than 100 µM. For the same compound, the GI50 [13] was 3.13 µM, the TGI [13] was greater than 100 µM and the GI50 [14] was 252 nM. It also gave a TGI [14] of 0.738 µM, a GI50 [15] of 5.59 µM and a TGI [15] greater than 96.5 µM. The GI50 [16] was 4.09 µM, the TGI [16] was greater than 83.9 µM and the GI50 [17] was 29 µM. The TGI [17] was greater than 100 µM, the GI50 [18] was 0.72 µM and the GI50 [19] was 2.65 µM. For the same compound, the TGI [19] was greater than 100 µM, the GI50 [20] was 2.73 µM and the TGI [20] was greater than 80.7 µM. For the same compound, the GI50 [21] was 2.85 µM, the TGI [21] was 20.4 µM and the GI50 [22] was 3.82 µM. For the same compound, the TGI [22] was 58.9 µM, the GI50 [23] was 18.1 µM and the TGI [23] was greater than 100 µM. The GI50 [24] was 4.41 µM, the TGI [24] was greater than 100 µM and the GI50 [25] was 2.78 µM. It also gave a TGI [25] greater than 100 µM, a GI50 [26] of 6.64 µM and a TGI [26] greater than 100 µM. For the same compound, the GI50 [27] was 2180 nM, the TGI [27] was 45.1 µM and the GI50 [28] was 5.63 µM. It also gave a TGI [28] greater than 100 µM, a GI50 [29] of 3.82 µM and a TGI [29] greater than 90.5 µM. For the same compound, the GI50 [30] was 3.37 µM, the TGI [30] was greater than 100 µM and the GI50 [31] was 465 nM. It also gave a TGI [31] of 1.71 µM, a GI50 [32] of 3.25 µM and a TGI [32] greater than 95.4 µM. For the same compound, the GI50 [33] was 971 nM, the TGI [33] was greater than 92.1 µM and the GI50 [34] was 8.78 µM. It also gave a TGI [34] greater than 100 µM, a GI50 [35] of 28.9 µM and a TGI [35] greater than 100 µM. It also gave a GI50 [36] of 2.44 µM, a TGI [36] greater than 61.1 µM and a GI50 [37] of 4.02 µM. The TGI [37] was greater than 100 µM, the GI50 [39] was 2940 nM and the TGI [39] was greater than 100 µM. The GI50 [40] was 2.15 µM, the TGI [40] was greater than 94.7 µM and the GI50 [41] was 5.91 µM. For the same compound, the TGI [41] was greater than 84.7 µM, the GI50 [42] was 2.45 µM and the TGI [42] was 8.8 µM. It also gave a GI50 [43] of 9.79 µM, a TGI [43] greater than 89.2 µM and a GI50 [44] of 30.1 µM. For the same compound, the TGI [44] was greater than 100 µM, the GI50 [45] was 3.04 µM and the TGI [45] was greater than 68.3 µM. It also gave a GI50 [46] of 16.1 µM, a TGI [46] greater than 100 µM and a GI50 [47] of 2.97 µM. The TGI [47] was greater than 100 µM, the GI50 [48] was 18.2 µM and the TGI [48] was greater than 100 µM. For the same compound, the GI50 [49] was 1.89 µM, the TGI [49] was greater than 100 µM and the GI50 [50] was 204 nM. The TGI [50] was 0.703 µM, the GI50 [51] was 7.52 µM and the TGI [51] was greater than 100 µM. It also gave a GI50 [52] of 5.7 µM, a TGI [52] greater than 100 µM and a GI50 [53] of 9.62 µM. It also gave a TGI [53] greater than 100 µM, a GI50 [54] of 3.09 µM and a TGI [54] greater than 100 µM. It also gave a GI50 [55] of 18.6 µM, a TGI [55] greater than 100 µM and a GI50 [56] of 2.36 µM. It also gave a TGI [56] of 16.9 µM, a GI50 [57] of 1380 nM and a TGI [57] greater than 100 µM.
